Literature values as cited in US11389549B2, “Diagnosis-treatment integrated nano-probe for 19F-MR/fluorescence multi-mode molecular imaging and drug-loading and preparation method and application of nano-probe” (Harbin Medical University, priority 2019, dated 2022).

solubility in water (water): insoluble to water
SMILES: C=CC(=O)Nc1cc(Nc2nccc(-c3cn(C)c4ccccc34)n2)c(OC)cc1N(C)CCN(C)C [AZD9291]
solubility in organic solvents (DMSO and other organic solvents): soluble to Dimethyl Sulfoxide (DMSO) and other organic solvents merely
